Measurements as given in patent publication US20090181963A1, “3H-[1,2,3]TRIAZOLO[4,5-D]PYRIMIDINE COMPOUNDS, THEIR USE AS mTOR KINASE AND PI3 KINASE INHIBITORS, AND THEIR [sequence]” (Wyeth, priority 2008, published 2009).

Legend:
[1] = target: PI3 Kinase α (Homo sapiens, UniProt P42336); test: Fluorescence polarization assay for PI3K (PI3 Kinase α); type: biochemical; conditions: diC8-PI(4,5)P2 substrate, 25 μM ATP, one hour at 25° C.
[2] = target: PI3 Kinase γ (Homo sapiens, UniProt P48736); test: Fluorescence polarization assay for PI3K (PI3 Kinase γ); type: biochemical; conditions: diC8-PI(4,5)P2 substrate, 25 μM ATP, one hour at 25° C.
Sequence of PI3 Kinase γ (P48736 whole entry): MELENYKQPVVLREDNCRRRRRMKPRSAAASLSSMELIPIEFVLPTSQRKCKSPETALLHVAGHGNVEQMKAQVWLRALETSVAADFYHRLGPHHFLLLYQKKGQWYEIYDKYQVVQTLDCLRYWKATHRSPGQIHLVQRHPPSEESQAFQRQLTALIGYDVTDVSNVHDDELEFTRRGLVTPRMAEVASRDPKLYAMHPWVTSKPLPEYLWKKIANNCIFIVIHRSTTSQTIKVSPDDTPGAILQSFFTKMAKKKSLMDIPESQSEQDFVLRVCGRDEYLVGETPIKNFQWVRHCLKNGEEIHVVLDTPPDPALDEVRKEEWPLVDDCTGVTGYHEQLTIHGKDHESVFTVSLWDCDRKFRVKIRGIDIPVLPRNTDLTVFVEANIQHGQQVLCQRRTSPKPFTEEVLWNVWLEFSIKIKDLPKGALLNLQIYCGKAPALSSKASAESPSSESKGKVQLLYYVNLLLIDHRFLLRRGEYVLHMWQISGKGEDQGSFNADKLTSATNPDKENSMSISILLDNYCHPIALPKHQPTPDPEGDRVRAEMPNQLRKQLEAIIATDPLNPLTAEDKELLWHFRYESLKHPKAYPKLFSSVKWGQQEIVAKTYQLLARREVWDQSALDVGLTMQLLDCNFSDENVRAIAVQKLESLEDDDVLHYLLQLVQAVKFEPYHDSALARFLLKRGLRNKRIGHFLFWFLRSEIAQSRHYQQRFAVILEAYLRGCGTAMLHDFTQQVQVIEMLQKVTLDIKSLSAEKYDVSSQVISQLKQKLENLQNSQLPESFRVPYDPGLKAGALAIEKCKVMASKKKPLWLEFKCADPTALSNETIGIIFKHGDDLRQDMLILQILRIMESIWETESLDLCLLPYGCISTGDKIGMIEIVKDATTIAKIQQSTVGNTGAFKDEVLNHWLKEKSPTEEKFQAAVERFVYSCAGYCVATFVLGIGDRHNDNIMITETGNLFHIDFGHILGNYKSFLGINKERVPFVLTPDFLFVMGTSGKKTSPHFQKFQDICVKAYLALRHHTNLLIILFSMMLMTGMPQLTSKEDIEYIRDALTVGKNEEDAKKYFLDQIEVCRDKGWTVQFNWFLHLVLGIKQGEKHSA

Sequence of PI3 Kinase α (P42336 whole entry): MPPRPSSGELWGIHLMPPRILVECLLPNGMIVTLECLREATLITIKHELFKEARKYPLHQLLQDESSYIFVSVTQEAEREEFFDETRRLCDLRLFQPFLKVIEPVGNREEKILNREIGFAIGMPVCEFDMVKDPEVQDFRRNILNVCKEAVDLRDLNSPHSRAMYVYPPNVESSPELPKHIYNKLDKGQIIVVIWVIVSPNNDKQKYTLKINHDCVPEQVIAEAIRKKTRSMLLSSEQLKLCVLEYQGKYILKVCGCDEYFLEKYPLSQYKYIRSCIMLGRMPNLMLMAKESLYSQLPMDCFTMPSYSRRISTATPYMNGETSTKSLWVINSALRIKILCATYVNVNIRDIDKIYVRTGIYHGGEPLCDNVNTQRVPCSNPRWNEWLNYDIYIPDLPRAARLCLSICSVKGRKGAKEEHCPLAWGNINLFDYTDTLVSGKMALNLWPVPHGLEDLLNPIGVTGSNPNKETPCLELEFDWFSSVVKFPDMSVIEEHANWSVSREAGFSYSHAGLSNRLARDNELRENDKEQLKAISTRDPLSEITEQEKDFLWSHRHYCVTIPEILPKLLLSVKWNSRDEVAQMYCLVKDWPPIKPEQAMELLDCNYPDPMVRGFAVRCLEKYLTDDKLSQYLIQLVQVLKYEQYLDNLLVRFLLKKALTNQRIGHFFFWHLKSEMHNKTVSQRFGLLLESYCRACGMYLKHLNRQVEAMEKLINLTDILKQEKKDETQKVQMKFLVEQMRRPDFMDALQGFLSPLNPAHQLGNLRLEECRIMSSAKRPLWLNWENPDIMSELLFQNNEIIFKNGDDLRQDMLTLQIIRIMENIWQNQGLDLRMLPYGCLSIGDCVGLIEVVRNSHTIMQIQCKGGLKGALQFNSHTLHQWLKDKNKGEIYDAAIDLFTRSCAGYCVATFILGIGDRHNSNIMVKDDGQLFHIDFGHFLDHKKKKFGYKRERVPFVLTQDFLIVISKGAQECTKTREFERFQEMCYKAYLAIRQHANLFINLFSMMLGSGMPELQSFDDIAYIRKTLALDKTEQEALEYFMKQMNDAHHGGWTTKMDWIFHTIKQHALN
Sequence of PI3 Kinase α (P27986 whole entry partner): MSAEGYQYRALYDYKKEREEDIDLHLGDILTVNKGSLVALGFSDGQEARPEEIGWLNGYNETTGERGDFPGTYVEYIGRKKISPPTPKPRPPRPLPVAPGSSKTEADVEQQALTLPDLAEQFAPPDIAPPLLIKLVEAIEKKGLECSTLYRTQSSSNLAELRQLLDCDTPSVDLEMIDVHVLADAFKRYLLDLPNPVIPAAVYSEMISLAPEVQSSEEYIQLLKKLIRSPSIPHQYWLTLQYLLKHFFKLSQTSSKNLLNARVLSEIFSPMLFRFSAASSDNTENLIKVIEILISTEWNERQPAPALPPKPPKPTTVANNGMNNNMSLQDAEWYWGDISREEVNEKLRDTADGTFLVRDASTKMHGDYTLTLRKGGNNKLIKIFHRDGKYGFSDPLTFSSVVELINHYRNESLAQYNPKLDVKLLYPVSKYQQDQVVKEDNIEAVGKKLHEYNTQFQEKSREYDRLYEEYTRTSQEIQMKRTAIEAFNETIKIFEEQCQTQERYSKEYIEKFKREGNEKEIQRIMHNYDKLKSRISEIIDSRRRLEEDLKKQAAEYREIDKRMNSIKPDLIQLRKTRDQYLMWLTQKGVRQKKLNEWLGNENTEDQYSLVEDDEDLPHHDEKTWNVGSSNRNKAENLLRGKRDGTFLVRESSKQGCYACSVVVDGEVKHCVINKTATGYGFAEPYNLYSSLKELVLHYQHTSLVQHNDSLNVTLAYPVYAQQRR

Row | Compound | IC50 [1] | IC50 [2]
1 | Cn1nccc1CN1CCC(n2nnc3c(N4CCOCC4)nc(-c4cncc(O)c4)nc32)CC1 [Example 30, 5-(3-{1-[(1-methyl-1H-pyrazol-5-yl)methyl]piperidin-4-yl}-7-morpholin-4-yl-3H-[1,2,3]triazolo[4,5-d]pyrimidin-5-yl)pyridin-3-ol] | 231 nM | 2860 nM
2 | COC(=O)c1cccc(-n2nnc3c(N4CCOCC4)nc(-c4cccc(O)c4)nc32)c1 [Example 115, methyl 3-[5-(3-hydroxyphenyl)-7-morpholin-4-yl-3H-[1,2,3]triazolo[4,5-d]pyrimidin-3-yl]benzoate] | 240 nM | 3630 nM
3 | CNC(=O)c1cccc(-n2nnc3c(N4CCOCC4)nc(-c4cccc(O)c4)nc32)c1 [Example 121, 3-[5-(3-hydroxyphenyl)-7-morpholin-4-yl-3H-[1,2,3]triazolo[4,5-d]pyrimidin-3-yl]-N-methylbenzamide] | 36 nM | 551 nM
4 | Oc1cccc(-c2nc(N3CCOCC3)c3nnn(C4CCN(Cc5ccccc5)CC4)c3n2)c1 [Example 1, 3-[3-(1-benzylpiperidin-4-yl)-7-morpholin-4-yl-3H-[1,2,3]triazolo[4,5-d]pyrimidin-5-yl]phenol] | 121 nM | 667 nM
5 | CC(=O)N1CCN(CCn2nnc3c(N4CCOCC4)nc(-c4cccc(O)c4)nc32)CC1 [Example 105, 3-{3-[2-(4-acetylpiperazin-1-yl)ethyl]-7-morpholin-4-yl-3H-[1,2,3]triazolo[4,5-d]pyrimidin-5-yl}phenol] | 1380 nM | 2960 nM
6 | Oc1cncc(-c2nc(N3CCOCC3)c3nnn(C4CCN(Cc5ccc(Cl)nc5)CC4)c3n2)c1 [Example 20, 5-(3-{1-[(6-chloropyridin-3-yl)methyl]piperidin-4-yl}-7-morpholin-4-yl-3H-[1,2,3]triazolo[4,5-d]pyrimidin-5-yl)pyridin-3-ol] | 541 nM | 454 nM
7 | COC(=O)c1cccc(-n2nnc3c(N4CCOCC4)nc(-c4cccc(C=O)c4)nc32)c1 [Example 116, methyl 3-[5-(3-formylphenyl)-7-morpholin-4-yl-3H-[1,2,3]triazolo[4,5-d]pyrimidin-3-yl]benzoate] | > 10000 nM | > 10000 nM
8 | CC(C)(C)C(=O)Nc1ncccc1CN1CCC(n2nnc3c(N4CCOCC4)nc(-c4cncc(O)c4)nc32)CC1 [Example 25, N-[3-({4-[5-(5-hydroxypyridin-3-yl)-7-morpholin-4-yl-3H-[1,2,3]triazolo[4,5-d]pyrimidin-3-yl]piperidin-1-yl}methyl)pyridin-2-yl]-2,2-dimethylpropanamide] | 143 nM | 407 nM
9 | CCn1nnc2c(N3CCOCC3)nc(-c3ccc(NC(=O)Nc4ccc(C(=O)N5CCN(c6ccccn6)CC5)cc4)cc3)nc21 [Example 58, 1-[4-(3-ethyl-7-morpholin-4-yl-3H-[1,2,3]triazolo[4,5-d]pyrimidin-5-yl)phenyl]-3-{4-[(4-pyridin-2-ylpiperazin-1-yl)carbonyl]phenyl}urea] | 2.5 nM | 14 nM
10 | Oc1cccc(-c2nc(N3CCOCC3)c3nnn(C4CN(Cc5ccc(F)nc5)C4)c3n2)c1 [Example 128, 3-(3-{1-[(6-fluoropyridin-3-yl)methyl]azetidin-3-yl}-7-morpholin-4-yl-3H-[1,2,3]triazolo[4,5-d]pyrimidin-5-yl)phenol] | 164 nM | 1100 nM
11 | 3-{3-[4-(4-Benzylpiperazin-1-yl)butyl]-7-morpholin-4-yl-3H-[1,2,3]triazolo[4,5-d]pyrimidin-5-yl}phenol [Example 206] | 116 nM | 216 nM
12 | CCn1nnc2c(N3CCOCC3)nc(-c3ccc(NC(=O)Nn4cnnc4)cc3)nc21 [Example 36, 1-[4-(3-ethyl-7-morpholin-4-yl-3H-[1,2,3]triazolo[4,5-d]pyrimidin-5-yl)phenyl]-3-(4H-1,2,4-triazol-4-yl)urea] | 179 nM | 895 nM
13 | Oc1cncc(-c2nc(N3CCOCC3)c3nnn(C4CCN(Cc5cncc(Br)c5)CC4)c3n2)c1 [Example 16, 5-(3-{1-[(5-bromopyridin-3-yl)methyl]piperidin-4-yl}-7-morpholin-4-yl-3H-[1,2,3]triazolo[4,5-d]pyrimidin-5-yl)pyridin-3-ol] | 61 nM | 161 nM
14 | CCn1nnc2c(N3CCOC[C@@H]3C)nc(-c3ccc(NC(=O)Nc4cccs4)cc3)nc21 [Example 69, (S)-1-(4-(3-ethyl-7-(3-methylmorpholino)-3H-[1,2,3]triazolo[4,5-d]pyrimidin-5-yl)phenyl)-3-(thiophen-2-yl)urea] | 8.5 nM | 97.5 nM
15 | Oc1cccc(-c2nc(N3CCOCC3)c3nnn(CCN4CCN(Cc5ccccc5)CC4)c3n2)c1 [Example 114, 3-{3-[2-(4-benzylpiperazin-1-yl)ethyl]-7-morpholin-4-yl-3H-[1,2,3]triazolo[4,5-d]pyrimidin-5-yl}phenol] | 255 nM | 982 nM
16 | CCn1nnc2c(N3CCOC[C@@H]3C)nc(-c3ccc(NC(=O)Nc4ccc(F)cc4)cc3)nc21 [Example 74, (S)-1-(4-(3-ethyl-7-(3-methylmorpholino)-3H-[1,2,3]triazolo[4,5-d]pyrimidin-5-yl)phenyl)-3-(4-fluorophenyl)urea] | 9.5 nM | 97 nM
17 | CCn1nnc2c(N3CCOCC3)nc(-c3ccc(N)cc3)nc21 [Example 32, 4-(3-Ethyl-7-morpholin-4-yl-3H-[1,2,3]triazolo[4,5-d]pyrimidin-5-yl)-phenylamine] | 554 nM | 4070 nM
18 | CN(C)CCNC(=O)c1cccc(-n2nnc3c(N4CCOCC4)nc(-c4cccc(O)c4)nc32)c1 [Example 122, N-[2-(dimethylamino)ethyl]-3-[5-(3-hydroxyphenyl)-7-morpholin-4-yl-3H-[1,2,3]triazolo[4,5-d]pyrimidin-3-yl]benzamide] | 56.5 nM | 260 nM
19 | CCn1nnc2c(N3CCOCC3)nc(-c3ccc(NC(=O)Nc4ccc(C(=O)N5CCC(N6CCCCC6)CC5)cc4)cc3)nc21 [Example 50, 1-[4-(1,4′-bipiperidin-1′-ylcarbonyl)phenyl]-3-[4-(3-ethyl-7-morpholin-4-yl-3H-[1,2,3]triazolo[4,5-d]pyrimidin-5-yl)phenyl]urea] | 1.8 nM | 18 nM
20 | CC(C)(C)OC(=O)N1CC(n2nnc3c(N4CCOCC4)nc(-c4cccc(O)c4)nc32)C1 [Example 124, tert-butyl 3-[5-(3-hydroxyphenyl)-7-morpholin-4-yl-3H-[1,2,3]triazolo[4,5-d]pyrimidin-3-yl]azetidine-1-carboxylate] | 108 nM | 890 nM

Further lines, results first:

Row | IC50 [1] | IC50 [2] | Compound
21 | 9 nM | 91.5 nM | O=C(Nc1ccncc1)Nc1ccc(-c2nc(N3CCOCC3)c3nnn(C4CCNCC4)c3n2)cc1 [Example 167, 1-[4-(7-morpholin-4-yl-3-piperidin-4-yl-3H-[1,2,3]triazolo[4,5-d]pyrimidin-5-yl)phenyl]-3-pyridin-4-ylurea]
22 | 296 nM | 748 nM | CN(C)CCNC(=O)Nc1ccc(-c2nc(N3CCOCC3)c3nnn(C4CCN(C(=O)OC(C)(C)C)CC4)c3n2)cc1 [Example 151, tert-butyl 4-(5-(4-(3-(2-(dimethylamino)ethyl)ureido)phenyl)-7-morpholino-3H-[1,2,3]triazolo[4,5-d]pyrimidin-3-yl)piperidine-1-carboxylate]
23 | 765 nM | 9590 nM | COC(=O)c1ccc(Cn2nnc3c(N4CCOCC4)nc(-c4cccc(CO)c4)nc32)cc1 [Example 243, methyl 4-({5-[3-(hydroxymethyl)phenyl]-7-morpholin-4-yl-3H-[1,2,3]triazolo[4,5-d]pyrimidin-3-yl}methyl)benzoate]
24 | 38 nM | 88 nM | O=C(Nc1ccc(-c2nc(N3CCOCC3)c3nnn(CC(F)(F)F)c3n2)cc1)Nc1cncnc1 [Example 136, 1-{4-[7-morpholin-4-yl-3-(2,2,2-trifluoroethyl)-3H-[1,2,3]triazolo[4,5-d]pyrimidin-5-yl]phenyl}-3-pyrimidin-5-ylurea]
25 | 118 nM | 938 nM | O=C(NCc1ccco1)c1ccc(Cn2nnc3c(N4CCOCC4)nc(-c4cccc(O)c4)nc32)cc1 [Example 230, N-(2-furylmethyl)-4-{[5-(3-hydroxyphenyl)-7-morpholin-4-yl-3H-[1,2,3]triazolo[4,5-d]pyrimidin-3-yl]methyl}benzamide]
26 | 23.7 nM | 164 nM | OCc1cccc(-c2nc(N3CCOCC3)c3nnn(C4CCNCC4)c3n2)c1 [Example 176, [3-(7-morpholin-4-yl-3-piperidin-4-yl-3H-[1,2,3]triazolo[4,5-d]pyrimidin-5-yl)phenyl]methanol]
27 | 68 nM | 408 nM | O=C(Nc1ccccc1)Nc1ccc(-c2nc(N3CCOCC3)c3nnn(CC4CN(Cc5ccc(-c6ccncc6)cc5)C4)c3n2)cc1 [Example 193, 1-[4-(7-Morpholin-4-yl-3-{[1-(4-pyridin-4-ylbenzyl)azetidin-3-yl]methyl}-3H-[1,2,3]triazolo[4,5-d]pyrimidin-5-yl)phenyl]-3-phenylurea]
28 | 1510 nM | 1610 nM | COC(=O)c1ccc(Cn2nnc3c(N4CCOCC4)nc(-c4cc(O)cc(F)c4)nc32)cc1 [Example 244, methyl 4-{[5-(3-fluoro-5-hydroxyphenyl)-7-morpholin-4-yl-3H-[1,2,3]triazolo[4,5-d]pyrimidin-3-yl]methyl}benzoate]
29 | 58 nM | 361 nM | O=C(Nc1cccnc1)c1ccc(Cn2nnc3c(N4CCOCC4)nc(-c4cccc(O)c4)nc32)cc1 [Example 216, 4-{[5-(3-hydroxyphenyl)-7-morpholin-4-yl-3H-[1,2,3]triazolo[4,5-d]pyrimidin-3-yl]methyl}-N-pyridin-3-ylbenzamide]
30 | 447 nM | 1670 nM | CC(C)(C)OC(=O)NC1CCN(C(=O)c2ccc(Cn3nnc4c(N5CCOCC5)nc(-c5cccc(O)c5)nc43)cc2)CC1 [Example 209, tert-butyl [1-(4-{[5-(3-hydroxyphenyl)-7-morpholin-4-yl-3H-[1,2,3]triazolo[4,5-d]pyrimidin-3-yl]methyl}benzoyl)piperidin-4-yl]carbamate]
